Measured values taken from PMC12135066, “Design and Preclinical Evaluation of Novel uPAR-Targeting Radiopeptides Modified with an Albumin-Binding Entity” (Molecular Pharmaceutics, 2025).

What was measured:
[1] = target: T1, human uPAR (Homo sapiens, UniProt Q03405); test: uPAR-binding affinity (KD values), saturation experiments with HEK-uPAR cells; conditions: saturation binding on HEK-uPAR cells, on ice (4 °C) 1 h, 1–1600 nM radiopeptide, ± AE105 40 µM; γ-counter; nonlinear regression; average ± SD, n=3
T1 construct: host or cells: HEK cells (HEK-uPAR)
In short: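 HEK-uPAR cells incubated 1 h at 4 °C (on ice) with radiopeptide at 1–1600 nM final, with or without 40 μM AE105 as blocker. Cell-bound activity counted in a γ-counter after NaOH lysis; KD from nonlinear regression of specific binding (total minus unspecific), mean ± SD of n = 3.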

[2] = n-Octanol/PBS distribution coefficients (logD values); conditions: n-octanol/PBS pH 7.4, pH 7.4
[3] = test system: HEK-uPAR xenograft-bearing nude mice; test: Biodistribution studies in HEK-uPAR xenograft-bearing nude mice; conditions: average ± SD, n=3 animals
[4] = as above; conditions: female, CD1/nude, mouse, 5 MBq (0.5 nmol), total radioactivity, 5 MBq, 0.5 nmol, decay-corrected, average ± SD, n=3 animals; for tissue uptake at 4 h: 4 h p.i.; for tissue uptake at 24 h: 24 h p.i.
[5] = Radiolytic stability of the radiopeptides in saline with L-ascorbic acid; conditions: 50 MBq/nmol in saline, 150 MBq/300 µL, L-ascorbic acid (3 mg, 20 µL) and NaOAc (0.5 M, 30 µL), HPLC, product peak relative to t=0 (100%), average ± SD, n=3
Experimental: The radiolytic stability of the radiopeptides (50 MBq/nmol) in saline (150 MBq/300 μL) was assessed in the absence and presence of L-ascorbic acid (3 mg added in a volume of 20 μL). After an incubation period of 1, 4, and 24 h, aliquots of the solutions were analyzed using HPLC. The integrated peak area representing the intact radiopeptide was expressed as the percentage of the sum of all peaks of the chromatogram. The final amount of intact radiopeptide was expressed as the percentage of the product peak obtained at t = 0, which was set as 100% (Supporting Information).
The radiolytic stability of [177Lu]Lu-DOTA-AE105 and the new 177Lu-labeled uPAR-targeting
radiopeptides (50 MBq/nmol) was assessed in vitro in the formulated solution . The radiopeptide s were
diluted in saline to obtain an activity concentration of 150 MBq in 300 µL in the presence of L-ascorbic
acid (3 mg, 20 µL) and NaOAc (0.5 M, 30 µL) to compensate for the acidic pH. Aliquots of the dilutions
were analyzed using HPLC after incubation periods of 1 h, 4 h and 24 h . The integrated peak area
measured for the intact radioligand peak was expressed as the percentage of the sum of the integrated
peak areas of each peak present in the chromatogram. The final amount of intact radiopeptide at t = 1 h,
4 h and 24 h was expressed by correcting the obtained percentage of the product peak to this peak
obtained at t = 0, which was set as 100%.

[6] = test system: mouse serum albumin (MSA); test: Albumin-binding properties in mouse blood plasma (ultrafiltration assay); conditions: ultrafiltration (Amicon, 10 kDa), mouse blood plasma dilutions in PBS pH 7.4, [MSA]-to-[radiopeptide] 0.01–12500, 0.006 nmol, 37 °C 30 min, γ-counter; inverse ratio of B50, [177Lu]Lu-uPAR-01 set as 1.00; average curve of 3 experiments
[7] = test system: human serum albumin (HSA); test: Albumin-binding properties in human blood plasma (ultrafiltration assay); conditions: ultrafiltration (Amicon, 10 kDa), human blood plasma dilutions in PBS pH 7.4, [HSA]-to-[radiopeptide] 0.01–20000, 0.006 nmol, 37 °C 30 min, γ-counter; inverse ratio of B50, [177Lu]Lu-uPAR-01 set as 1.00; average curve of 3 experiments
[8] = Stability of the radiopeptides in human blood plasma; conditions: human
Experimental: The radiopeptides (50 MBq/nmol) stabilized with L-ascorbic acid were diluted in mouse and human blood plasma and incubated at 37 °C. Aliquots were taken after 1, 4, and 24 h and analyzed using reversed-phase thin-layer chromatography (TLC) (Supporting Information).
aProduct peak expressed as percentage of the sum of integrated peak areas of the entire chromatogram relative to
the value obtained immediately after labeling (set as 100%), average ± standard deviation (SD) (n=3).
Stability of the Radiopeptides in Mouse and Human Blood Plasma
Purpose: The stability of the radiopeptides was assessed in mouse and human blood plasma as an
indication for their in vivo stability.
Methods: The radiopeptides (50 MBq/nmol) stabilized with L-ascorbic acid were diluted in mouse
blood plasma (Lot: 32321, Rockland Immunochemicals Inc., U.S.A.) or in human blood plasma
(Stiftung Blutspende SRK Aargau -Solothurn, Switzerland) at a concentration of 10 MBq/200 µL and
incubated at 37 °C over a 24 h time period. Control samples were prepared by diluting the radiopeptides
in saline at the same activity concentration. Aliquots of each dilution were taken after 1 h, 4 h, and 24 h
(2 µL, ~100 kBq) and investigated employing thin layer chromatography (TLC) methods on reversed-
phase TLC plates (MERCK Analytical Chromatography, TLC Silica gel 60 RP -18 F254s) as stationary
phase and a 3/7 (v/v) mixture of acetonitrile /citrate buffer (0.1 M, pH 5.5) as mobile phase. A dilution
of [177Lu]LuCl3/HCl 0.04 M (10 MBq/200 µL) was added on each TLC plate. The developed and dried
TLC plates were exposed to a phosphor screen (Super resolution screen PSR10450013, PerkinElmer)
for 1 min. The screen was read with a Cyclone Plus phosphor imager (PerkinElmer) and the peak
quantification was performed using OptiQuant Software (version 5.0).

[9] = HEK-uPAR xenograft, HEK-uPAR xgft

T1 sequence (Q03405 23-335): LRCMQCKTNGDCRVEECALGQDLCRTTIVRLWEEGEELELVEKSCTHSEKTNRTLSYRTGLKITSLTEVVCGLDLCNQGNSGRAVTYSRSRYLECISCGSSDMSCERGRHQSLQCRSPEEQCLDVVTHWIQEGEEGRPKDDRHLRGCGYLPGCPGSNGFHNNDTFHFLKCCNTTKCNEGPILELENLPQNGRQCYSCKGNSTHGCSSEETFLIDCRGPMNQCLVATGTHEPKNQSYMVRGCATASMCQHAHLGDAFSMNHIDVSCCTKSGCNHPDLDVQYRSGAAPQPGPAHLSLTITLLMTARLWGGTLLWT

Question: What does the source list for `CC(C)C[C@H](NC(=O)[C@H](Cc1ccc(O)cc1)NC(=O)[C@@H](CCCNC(=N)N)NC(=O)[C@@H](CO)NC(=O)[C@H](Cc1ccccc1)NC(=O)[C@H](CC1CCCCC1)NC(=O)[C@H](CC(=O)O)NC(=O)[C@H](CCCCNC(=O)CCCc1ccc(I)cc1)NC(=O)[C@@H](N)CCCCNC(=O)CN1CCN(CC(=O)O)CCN(CC(=O)O)CCN(CC(=O)O)CC1)C(=O)N[C@@H](Cc1c[nH]c2ccccc12)C(=O)N[C@@H](CO)C(N)=O` [[^177Lu]Lu-uPAR-04, metal not drawn]?
Answer: Kd [1]: 0.057 ± 0.021 µM; logD [2]: -0.29; Xenograft-to-blood ratio ([3]; 4 h p.i.): 0.28 ± 0.01; Xenograft-to-kidney ratio ([3]; 4 h p.i.): 0.62 ± 0.01; Xenograft-to-liver ratio ([3]; 4 h p.i.): 0.93 ± 0.08; Xenograft-to-blood ratio ([3]; 24 h p.i.): 0.61 ± 0.09; Xenograft-to-kidney ratio ([3]; 24 h p.i.): 0.73 ± 0.15; Xenograft-to-liver ratio ([3]; 24 h p.i.): 1.4 ± 0.2; tissue uptake at 4 h [4, 9]: 3.6 ± 0.2 %ID/g; tissue uptake at 24 h [4, 9]: 4.3 ± 1.2 %ID/g; tissue uptake at 4 h ([4]; blood): 13 ± 1 %ID/g; tissue uptake at 24 h ([4]; blood): 7 ± 0.9 %ID/g; tissue uptake at 4 h ([4]; bone): 1.2 ± 0.1 %ID/g; tissue uptake at 24 h ([4]; bone): 0.85 ± 0.04 %ID/g; tissue uptake at 4 h ([4]; brain): 0.26 ± 0.02 %ID/g; tissue uptake at 24 h ([4]; brain): 0.14 ± 0.01 %ID/g; tissue uptake at 4 h ([4]; heart): 4.4 ± 0.6 %ID/g; tissue uptake at 24 h ([4]; heart): 3 ± 0.3 %ID/g; tissue uptake at 4 h ([4]; intestines): 1.6 ± 0.1 %ID/g; tissue uptake at 24 h ([4]; intestines): 0.99 ± 0.21 %ID/g; tissue uptake at 4 h ([4]; kidneys): 5.9 ± 0.4 %ID/g; tissue uptake at 24 h ([4]; kidneys): 5.9 ± 1.2 %ID/g; tissue uptake at 4 h ([4]; liver): 3.9 ± 0.3 %ID/g; tissue uptake at 24 h ([4]; liver): 3.1 ± 0.4 %ID/g; tissue uptake at 4 h ([4]; lung): 6.2 ± 0.7 %ID/g; tissue uptake at 24 h ([4]; lung): 4.3 ± 0.5 %ID/g; tissue uptake at 4 h ([4]; muscle): 1 ± 0.1 %ID/g; tissue uptake at 24 h ([4]; muscle): 0.73 ± 0.04 %ID/g; tissue uptake at 4 h ([4]; pancreas): 1.5 ± 0.1 %ID/g; tissue uptake at 24 h ([4]; pancreas): 1 ± 0.1 %ID/g; tissue uptake at 4 h ([4]; salivary glands): 2.8 ± 0.2 %ID/g; tissue uptake at 24 h ([4]; salivary glands): 2.4 ± 0.4 %ID/g; tissue uptake at 4 h ([4]; spleen): 1.9 ± 0.1 %ID/g; tissue uptake at 24 h ([4]; spleen): 2.3 ± 0.3 %ID/g; tissue uptake at 4 h ([4]; stomach): 1.5 ± 0.1 %ID/g; tissue uptake at 24 h ([4]; stomach): 1 ± 0.1 %ID/g; radiolytic stability, % intact radiopeptide ([5]; 1 h): 99 ± 1%; radiolytic stability, % intact radiopeptide ([5]; 4 h): 97 ± 2%; radiolytic stability after 24 h, intact radiopeptide [%] ([5]; 24 h): 95 ± 2%; Relative albumin-binding affinity, mouse blood plasma [6]: 1.08; Relative albumin-binding affinity, human blood plasma [7]: 1.07; remaining at 1 h, 10 MBq/200 µL ([8]; blood plasma): 101 ± 3%; remaining at 24 h, 10 MBq/200 µL ([8]; blood plasma): 90 ± 5%; remaining at 4 h, 10 MBq/200 µL ([8]; human blood plasma): 98 ± 2%
